Experimental data published in patent publication US10791740B2, “Enhancement of antibiotic efficacy” (priority 2014, dated 2020).
In brackets after ≈: the same amount, converted by molar mass. Where two headings read alike, the source gives them in different places.

How the values were obtained:
E. coli [1] = assay: MIC determination, E. coli (Table 1); assay type: cell-based, Escherichia coli; settings: single agent
Source text: (§1) Certain aspects are drawn to a method for increasing or enhancing the antimicrobial activity of an antimicrobial agent. As used herein, the “antimicrobial activity” of an antimicrobial agent is defined as the property of a substance to inhibit the growth and reproduction of a microbial organism or to kill it. Common terms generally applied to bacteria are bacteriostatic (stops growth) and bactericidal (kills bacteria). Depending on the concentrations applied, microbial growth can be slowed or stopped in comparison to concurrent experiments conducted in the absence of an antimicrobial agent. Depending on the concentrations applied, additional microbe death can occur in comparison to concurrent experiments conducted in the absence of an antimicrobial agent. […] The MIC is the lowest concentration of any agent having antimicrobial activity that inhibits the growth of a microorganism as judged by visual inspection. MIC can be determined by inoculating media with the organism and adding the antimicrobial agent diluted successively in half.
(§2) Among the organisms studied are several strains of the bacterium E. coli.
(§3) Minimal Inhibitory Concentration (MIC) Procedure. […] Prepare initial concentration of all the compounds required. • 5. […] Vortex each test tube for 2-3 seconds. • 11.

B. stubtilis = assay: MIC determination, B. subtilis (Table 1); assay type: cell-based, Bacillus subtilis; settings: single agent
Source text: (§4) Certain aspects are drawn to a method for increasing or enhancing the antimicrobial activity of an antimicrobial agent. As used herein, the “antimicrobial activity” of an antimicrobial agent is defined as the property of a substance to inhibit the growth and reproduction of a microbial organism or to kill it. Common terms generally applied to bacteria are bacteriostatic (stops growth) and bactericidal (kills bacteria). Depending on the concentrations applied, microbial growth can be slowed or stopped in comparison to concurrent experiments conducted in the absence of an antimicrobial agent. Depending on the concentrations applied, additional microbe death can occur in comparison to concurrent experiments conducted in the absence of an antimicrobial agent. The results of minimum inhibitory concentration (MIC) evaluations and growth curves are presented herein and the conditions are specified. The MIC is the lowest concentration of any agent having antimicrobial activity that inhibits the growth of a microorganism as judged by visual inspection. MIC can be determined by inoculating media with the organism and adding the antimicrobial agent diluted successively in half. […] Reference herein to increasing or enhancing activity, efficacy, potency, and the like are used interchangeably to mean that when the synthetic amphiphile is present, the ability of the antimicrobial agent to inhibit the growth of or to kill an organism will be manifested at a concentration lower than would be required to achieve the same results in the absence of said synthetic amphiphile.
(§5) Among the organisms studied are several strains of the bacterium E. coli. […] Experiments were conducted to determine the MIC values for the synthetic amphiphiles known as lariat ethers according to the procedures described in Antimicrobial M07-A9: Methods for Dilution Antimicrobial Susceptibility Tests for Bacteria that Grow Aerobically; Clinical and Laboratory Standards Institute, 2012; Vol. 32, 67 pp. MIC values so determined for several lariat ethers and for several antibiotics are shown in Table 1.

S. cerevisiae = assay: MIC determination, S. cerevisiae (Table 1); assay type: cell-based, Saccharomyces cerevisiae; settings: single agent
Source text: as §4, §5

K-12 E. coli [2] = assay: MIC of single agents against K-12 E. coli
DH5α E. coli [3] = assay: MIC of single agents against DH5α E. coli; assay type: cell-based, Escherichia coli; settings: for MIC to DH5α E. coli: single agent, values of the running text
Source text: as §1, §2, §3

[4] = test system: tetracycline resistant E. coli; assay type: cell-based, Escherichia coli; settings: for MIC: single agent, Table 5; for MIC (μM) of amphiphile alone: Tables 6 and 7
Source text: as §1, §2
N,N′-Dibenzyl-4,13-diaza-18-crown-6 is referred to in the table as dibenzyldiaza-18-crown-6.
as §3

HEK-293 cells = assay: MTT assay of toxicity to HEK-293 cells
Method: The toxicity of C6. C8, C10. C11 and C14 lariat ethers to HEK-293 cells was determined by using an MTT assay. […] The abscissa is a logarithmic scale for the concentrations ranging from 1 μM to 1000 μM (1 mM) used in the experiment. The ordinate represents percent survival of HEK-293 cells.
Growth medium containing DMEM with high glucose (ATCC). 10% fetal bovine serum (FBS: Sigma-Aldrich) and 10 μg/mL of blasticidin (Thermo-Fischer) was prepared. HEK 293 cells were thawed out from cryo-preserved samples in 10 mL growth media, centrifuged at 500 rpm for 10 minutes to remove preservative. The cells were then resuspended in fresh growth medium and cultured using a T-75 flask (Thermo-Fischer) at 37° C. and 5% CO2. Cells were monitored for confluence and growth medium was replaced every 48 h, until cells were placed onto a 96-well plate for toxicity studies.
After reaching 80-90% confluence, cells were trypsinized and suspended in media containing DMEM and 10% FBS (no antibiotics). The cells were counted on a hemacytometer and plated at a density of 20,000 cells per well in a 96-well plate and grown for 24 hours to reach 60-70% confluence. DMSO stocks of C6, C8, C10, C11 and C14 diaza-18-crown-6 lariat ethers were prepared at […] and diluted 1:10 to get working concentrations of 20 mM, 2 mM, and 0.2 mM. Each stock was further diluted […] into DMEM supplemented with 10% FBS to get final concentrations of 1 mM, 0.1 mM, 0.01 mM (10 μM) and 0.001 mM (1 μM). The original media was then removed from the cells and replaced with 200 μL media containing the desired concentration of compound. Three wells were used for each concentration providing experimental triplicates. […] The absorbance was measured at 570 nm and nonspecific absorbance was corrected at 650 nm, using SpectraMax340 micro plate reader.
The experiment was performed in triplicate and the average of percent survival of three experiments was determined. […] The lethal dose 50 (LD50) for each compound was calculated by using the equation for a logarithmic regression curve.

K-12 E. coli [5] = assay: Combination of amphiphile and antibiotic against K-12 E. coli
DH5α E. coli [6] = assay: Combination of lariat ether and antibiotic against DH5α E. coli; settings: 0.4 vol-% DMSO
[7] = test system: tetracycline resistant E. coli
DH5α E. coli [8] = assay: Inhibitory concentration (IC50) to DH5α E. coli cells (FIG. 4); assay type: cell-based, Escherichia coli
Source text: Two commonly used abbreviations are LD50 and IC50. The former is the concentration of an agent that comprises a lethal dose to 50% of the organism under study. The latter is the concentration of agent that inhibits growth of 50% of the organism under study. […] The abscissa represents the number of (CH2) groups in spacer chains. The ordinate is logarithmic and reflects the concentrations (in μM) of the various lariat ethers used.

E. coli [9] = settings: Journal of the American Chemical Society 2002, 124, 9022-3, cited from earlier work

Molecule: NC[C@H]1O[C@H](O[C@H]2[C@H](O)[C@@H](O[C@H]3O[C@H](CO)[C@@H](O)[C@H](N)[C@H]3O)[C@H](N)C[C@@H]2N)[C@H](N)C[C@@H]1O [tobramycin, reference compound]
- MIC (E. coli [1]; Escherichia coli): 15 µM (≈ 7.01 µg/mL)

Molecule: N,N′-di-n-decyl-4,13-diaza-18-crown-6 [C10 lariat ether]
- MIC (μM) B. stubtilis (B. stubtilis): 2.8 µM
- MIC (μM) S. cerevisiae (S. cerevisiae): 2.8 µM
- MIC (μM) of amphiphile alone (K-12 E. coli [2]): 12 µM
- MIC to DH5α E. coli (DH5α E. coli [3]): 12 µM
- MIC [4]: 16 µM
- MIC (μM) of amphiphile alone ([4]; tetracycline resistant E. coli): 16 µM
- MIC (E. coli [1]): 11 µM
- toxicity to HEK-293, rank among lariat ethers (HEK-293 cells; C6 to C14 lariat ethers compared): highest toxicity

Molecule: CN(C)[C@@H]1C(O)=C(C(N)=O)C(=O)[C@@]2(O)C(O)=C3C(=O)c4c(O)cccc4[C@@](C)(O)[C@H]3C[C@@H]12 [tetracycline, reference compound]
- Antibiotic Used (μM) in combination (K-12 E. coli [5]; Tetracycline with 6 μM C11 lariat ether): 2.5 µM
- MIC (μM) of antibiotic alone (K-12 E. coli [2]): 6 µM
- MIC (μM) of antibiotic alone ([4]; tetracycline resistant E. coli): ~900 µM
- Antibiotic Used (μM) in combination (DH5α E. coli [6]; tetracycline with 4 μM n-C11 lariat ether): 3 µM
- Antibiotic Used (μM) in combination (DH5α E. coli [6]; tetracycline with 12 μM n-C11 lariat ether): 1 µM
- Antibiotic Used (μM) in combination (DH5α E. coli [6]; tetracycline with 16 μM n-C11 lariat ether): 0.25 µM
- Antibiotic Used (μM) in combination (DH5α E. coli [6]; tetracycline with 18 μM n-C11 lariat ether): 1.5 µM
- Antibiotic Used (μM) in combination ([7]; Tetracycline with 8 μM C11 lariat ether): 175 µM
- Antibiotic Used (μM) in combination ([7]; Tetracycline with 12 μM C11 lariat ether): 87 µM
- Antibiotic Used (μM) in combination ([7]; Tetracycline with 16 μM C11 lariat ether): 87 µM
- Antibiotic Used (μM) in combination ([7]; Tetracycline with 18 μM C11 lariat ether): 87 µM

Molecule: N,N′-di-n-dodecyl-4,13-diaza-18-crown-6 [C12 lariat ether]
- MIC (μM) B. stubtilis (B. stubtilis): 2.5 µM
- MIC (μM) S. cerevisiae (S. cerevisiae): 2.5 µM
- MIC (μM) of amphiphile alone (K-12 E. coli [2]): >512 µM
- toxicity to DH5α E. coli cells (DH5α E. coli [3]; previous studies): did not show toxicity
- MIC (μM) of amphiphile alone ([4]; tetracycline resistant E. coli): >512 µM
- MIC (E. coli [1]): >300 µM

Molecule: N,N′-di-n-octyl-4,13-diaza-18-crown-6 [C8 lariat ether]
- MIC (μM) B. stubtilis (B. stubtilis): 105 µM
- MIC (μM) S. cerevisiae (S. cerevisiae): 25 µM
- IC50 (DH5α E. coli [8]; DH5α E. coli, FIG. 4): 150 µM
- MIC (μM) of amphiphile alone (K-12 E. coli [2]): 300 µM
- MIC (μM) of lariat ether alone (DH5α E. coli [3]; DH5α E. coli, Tables 2 and 3): >120 µM
- MIC to DH5α E. coli (DH5α E. coli [3]): > 240 µM
- MIC to DH5α E. coli (DH5α E. coli [3]; listed as C8 Lariat): 120 µM
- MIC [4]: 120 µM
- MIC (μM) of amphiphile alone ([4]; tetracycline resistant E. coli): 120 µM
- MIC (E. coli [1]): 120 µM
- LD50 to HEK-293 (HEK-293 cells): 33 µM

Molecule: c1ccc(CN2CCOCCOCCN(CCCCCCCCCCCCCCN3CCOCCOCCN(CCCCCCCCCCCCCCN4CCOCCOCCN(Cc5ccccc5)CCOCCOCC4)CCOCCOCC3)CCOCCOCC2)cc1 [C14 hydraphile]
- MIC [4]: 2 ± 0.125 µM (≈ 2.71 µg/mL)
- MIC (μM) of amphiphile alone ([4]; tetracycline resistant E. coli): 2 µM

Molecule: CO[C@H]1/C=C/O[C@@]2(C)Oc3c(C)c(O)c4c(O)c(c(/C=N/N5CCN(C)CC5)c(O)c4c3C2=O)NC(=O)/C(C)=C\C=C\[C@H](C)[C@H](O)[C@@H](C)[C@@H](O)[C@@H](C)[C@H](OC(C)=O)[C@@H]1C [rifampicin, reference compound]
- Antibiotic Used (μM) in combination (K-12 E. coli [5]; Rifampicin with 6 μM C11 lariat ether): 10 µM
- MIC (μM) of antibiotic alone (K-12 E. coli [2]): 20 µM
- Antibiotic Used (μM) in combination (DH5α E. coli [6]; rifampicin with 8 μM n-C11 lariat ether): 15 µM
- Antibiotic Used (μM) in combination (DH5α E. coli [6]; rifampicin with 12 μM n-C11 lariat ether): 6 µM
- Antibiotic Used (μM) in combination (DH5α E. coli [6]; rifampicin with 16 μM n-C11 lariat ether): 6 µM
- Antibiotic Used (μM) in combination (DH5α E. coli [6]; rifampicin with 18 μM n-C11 lariat ether): 3 µM

Molecule: CC[C@H]1OC(=O)[C@H](C)[C@@H](O[C@H]2C[C@@](C)(OC)[C@@H](O)[C@H](C)O2)[C@H](C)[C@@H](O[C@@H]2O[C@H](C)C[C@H](N(C)C)[C@H]2O)[C@](C)(O)C[C@@H](C)C(=O)[C@H](C)[C@@H](O)[C@]1(C)O [erythromycin, reference compound]
- MIC (E. coli [1]; Escherichia coli): > 400 µM

Molecule: N,N′-di-n-tetradecyl-4,13-diaza-18-crown-6 [C14 lariat ether]
- MIC (μM) B. stubtilis (B. stubtilis): >300 µM
- MIC (μM) S. cerevisiae (S. cerevisiae): >300 µM
- activity against E. coli (DH5α E. coli [8]; at 180 μM): inactive
- MIC (E. coli [1]): >300 µM

Molecule: c1ccc(CN2CCOCCOCCN(CCCCCCCCCCCCN3CCOCCOCCN(CCCCCCCCCCCCN4CCOCCOCCN(Cc5ccccc5)CCOCCOCC4)CCOCCOCC3)CCOCCOCC2)cc1 [C12 hydraphile]
- MIC [4]: 5 ± 0.5 µM (≈ 6.5 µg/mL)
- MIC (μM) of amphiphile alone ([4]; tetracycline resistant E. coli): 5 µM
- toxicity to E. coli (E. coli [9]; listed as C12 benzyl hydraphile): killed E. coli
- toxicity to E. coli (E. coli [9]; listed as benzyl C12 hydraphile): killed the bacteria
